Activity calls are given as the source filed them.
Key:
Format in all cases: functional
Pseudomonas aeruginosa [1] = assay: Antimicrobial activity against Pseudomonas aeruginosa MTCC 1688 at 750 ug/ml after 24 hrs by cup plate method; conditions: MTCC 1688, 24 h, read-out: IZ
Aspergillus niger [2] = assay: Antimicrobial activity against Aspergillus niger MTCC 281 at 500 ug/ml after 72 hrs by cup plate method; conditions: MTCC 281, 72 h, read-out: IZ
Aspergillus niger [3] = assay: Antimicrobial activity against Aspergillus niger MTCC 281 at 750 ug/ml after 72 hrs by cup plate method; conditions: MTCC 281, 72 h, read-out: IZ
[4] = Antioxidant activity assessed as ferric ion reducing activity at 75 ug/ml by FRAP assay
Escherichia coli [5] = assay: Antimicrobial activity against Escherichia coli MTCC 723 at 750 ug/ml after 24 hrs by cup plate method; conditions: MTCC 723, 24 h, read-out: IZ
[6] = Antioxidant activity assessed as metal chelating activity by measuring inhibition of ferrozine-Fe2+ complex formation at 100 ug/ml; parameters: scale not given: the % may be the effect or the level left
Pseudomonas aeruginosa [7] = assay: Antimicrobial activity against Pseudomonas aeruginosa MTCC 1688 at 500 ug/ml after 24 hrs by cup plate method; conditions: MTCC 1688, 24 h, read-out: IZ
Klebsiella pneumoniae [8] = assay: Antimicrobial activity against Klebsiella pneumoniae NCTC 13368 at 750 ug/ml after 24 hrs by cup plate method; conditions: NCTC 13368, 24 h, read-out: IZ
Aspergillus oryzae [9] = assay: Antimicrobial activity against Aspergillus oryzae MTCC 3567 at 750 ug/ml after 72 hrs by cup plate method; conditions: MTCC 3567, 72 h, read-out: IZ
Pseudomonas aeruginosa [10] = assay: Antimicrobial activity against Pseudomonas aeruginosa MTCC 1688 at 1000 ug/ml after 24 hrs by cup plate method; conditions: MTCC 1688, 24 h, read-out: IZ
Klebsiella pneumoniae [11] = assay: Antimicrobial activity against Klebsiella pneumoniae NCTC 13368 at 1000 ug/ml after 24 hrs by cup plate method; conditions: NCTC 13368, 24 h, read-out: IZ
Escherichia coli [12] = assay: Antimicrobial activity against Escherichia coli MTCC 723 at 500 ug/ml after 24 hrs by cup plate method; conditions: MTCC 723, 24 h, read-out: IZ
Aspergillus terreus [13] = assay: Antimicrobial activity against Aspergillus terreus MTCC 1782 at 1000 ug/ml after 72 hrs by cup plate method; conditions: MTCC 1782, 72 h, read-out: IZ
Staphylococcus aureus [14] = assay: Antimicrobial activity against Staphylococcus aureus ATCC 29513 at 750 ug/ml after 24 hrs by cup plate method; conditions: ATCC 29513, 24 h, read-out: IZ
[15] = Antioxidant activity assessed as metal chelating activity by measuring inhibition of ferrozine-Fe2+ complex formation at 25 to 100 ug/ml
Klebsiella pneumoniae [16] = assay: Antimicrobial activity against Klebsiella pneumoniae NCTC 13368 at 500 ug/ml after 24 hrs by cup plate method; conditions: NCTC 13368, 24 h, read-out: IZ
Aspergillus oryzae [17] = assay: Antimicrobial activity against Aspergillus oryzae MTCC 3567 at 1000 ug/ml after 72 hrs by cup plate method; conditions: MTCC 3567, 72 h, read-out: IZ
Aspergillus terreus [18] = assay: Antimicrobial activity against Aspergillus terreus MTCC 1782 at 500 ug/ml after 72 hrs by cup plate method; conditions: MTCC 1782, 72 h, read-out: IZ
Staphylococcus aureus [19] = assay: Antimicrobial activity against Staphylococcus aureus ATCC 29513 at 500 ug/ml after 24 hrs by cup plate method; conditions: ATCC 29513, 24 h, read-out: IZ
Aspergillus terreus [20] = assay: Antimicrobial activity against Aspergillus terreus MTCC 1782 at 750 ug/ml after 72 hrs by cup plate method; conditions: MTCC 1782, 72 h, read-out: IZ
Escherichia coli [21] = assay: Antimicrobial activity against Escherichia coli MTCC 723 at 1000 ug/ml after 24 hrs by cup plate method; conditions: MTCC 723, 24 h, read-out: IZ
Aspergillus oryzae [22] = assay: Antimicrobial activity against Aspergillus oryzae MTCC 3567 at 500 ug/ml after 72 hrs by cup plate method; conditions: MTCC 3567, 72 h, read-out: IZ
Aspergillus niger [23] = assay: Antimicrobial activity against Aspergillus niger MTCC 281 at 1000 ug/ml after 72 hrs by cup plate method; conditions: MTCC 281, 72 h, read-out: IZ
Aspergillus flavus [24] = assay: Antimicrobial activity against Aspergillus flavus MTCC 1973 at 1000 ug/ml after 72 hrs by cup plate method; conditions: MTCC 1973, 72 h, read-out: IZ
Aspergillus flavus [25] = assay: Antimicrobial activity against Aspergillus flavus MTCC 1973 at 500 ug/ml after 72 hrs by cup plate method; conditions: MTCC 1973, 72 h, read-out: IZ
Aspergillus flavus [26] = assay: Antimicrobial activity against Aspergillus flavus MTCC 1973 at 750 ug/ml after 72 hrs by cup plate method; conditions: MTCC 1973, 72 h, read-out: IZ
Staphylococcus aureus [27] = assay: Antimicrobial activity against Staphylococcus aureus ATCC 29513 at 1000 ug/ml after 24 hrs by cup plate method; conditions: ATCC 29513, 24 h, read-out: IZ

N#Cc1c(N)c2c(N)c3c(nc2oc1=O)OC(c1ccc(Cl)cc1)=CC3c1c(-c2ccccc2)[nH]c2ccc(Cl)cc12 (configuration not stated) gave a zone of inhibition at 750 µg/mL (Pseudomonas aeruginosa [1]) of 8 mm, a zone of inhibition at 500 µg/mL (Aspergillus niger [2]) of 8 mm and a zone of inhibition at 750 µg/mL (Aspergillus niger [3]) of 8 mm. The Activity [4] was “Active”, the zone of inhibition at 750 µg/mL (Escherichia coli [5]) was 12 mm and the Activity [6] was 79.7%. It also gave a zone of inhibition at 500 µg/mL (Pseudomonas aeruginosa [7]) of 9 mm, a zone of inhibition at 750 µg/mL (Klebsiella pneumoniae [8]) of 13 mm and a zone of inhibition at 750 µg/mL (Aspergillus oryzae [9]) of 3 mm. The zone of inhibition at 1000 µg/mL (Pseudomonas aeruginosa [10]) was 3 mm, the zone of inhibition at 1000 µg/mL (Klebsiella pneumoniae [11]) was 13 mm and the zone of inhibition at 500 µg/mL (Escherichia coli [12]) was 11 mm. For the same molecule, the zone of inhibition at 1000 µg/mL (Aspergillus terreus [13]) was 13 mm, the zone of inhibition at 750 µg/mL (Staphylococcus aureus [14]) was 12 mm and the Activity [15] was “Active”. For the same molecule, the zone of inhibition at 500 µg/mL (Klebsiella pneumoniae [16]) was 13 mm, the zone of inhibition at 1000 µg/mL (Aspergillus oryzae [17]) was 3 mm and the zone of inhibition at 500 µg/mL (Aspergillus terreus [18]) was 12 mm. The zone of inhibition at 500 µg/mL (Staphylococcus aureus [19]) was 12 mm, the zone of inhibition at 750 µg/mL (Aspergillus terreus [20]) was 13 mm and the zone of inhibition at 1000 µg/mL (Escherichia coli [21]) was 14 mm. For the same molecule, the zone of inhibition at 500 µg/mL (Aspergillus oryzae [22]) was 9 mm, the zone of inhibition at 1000 µg/mL (Aspergillus niger [23]) was 10 mm and the zone of inhibition at 1000 µg/mL (Aspergillus flavus [24]) was 8 mm. It also gave a zone of inhibition at 500 µg/mL (Aspergillus flavus [25]) of 10 mm, a zone of inhibition at 750 µg/mL (Aspergillus flavus [26]) of 9 mm and a zone of inhibition at 1000 µg/mL (Staphylococcus aureus [27]) of 10 mm.

Source: ChEMBL document CHEMBL2346657, “Synthesis of novel 2-amino-4-(5'-substituted 2'-phenyl-1H-indol-3'-yl)-6-aryl-4H-pyran-3-carbonitrile derivatives as antimicrobial and antioxidant agents” (2013)
